Tests used:
Format in all cases: cell-based
Conditions in all cases: after 10, 20, 40 and 60 minutes at all dilutions 1:100, 1:200, 1:400, 1:800
Escherichia coli = assay: antimicrobial screening by agar dilution, E. coli
Description: (§1) The antimicrobial properties of the 4,5-bis(4-bromophenyl)-1-hexyl-2-(3,4-dimethoxyphenyl)-1H-imidazole was studied by the method of agar dilution. Test solutions of each compound was prepared in concentration of 1% using dimethylformamide as a solvent then they were diluted in physiological solution to obtain the final experimental dilutions 1: 100, 1:200, 1:400, 1:800. The effect of these substances were compared with furacillin in a controlled study. The testing microbes used were gram positive bacteria Staphylococcus aureus, gram negative bacteria Pseudomonas aeruginosa and Escherichia coli and Candida albicans fungi were taken. The experiments used for this survey were meat-pentonlu agar (EPA) for cultivation of bacteria and Saburo environment for fungi. Each experiment used 1 ml of test solution on each plate 500 min. Add 2 drops of emulsified with microbes feel. All experimental samples were taken from the agar after 10, 20, 40, 60 minutes in the environment on the basis of Patrk planted. Bacteria were cultivated at a temperature of 37° C. for 1 day and the mushroom was kept in a thermostat for […] at a temperature of 28° C. Then results were checked.

Pseudomonas aeruginosa = assay: antimicrobial screening by agar dilution, Ps. aeruginosa
Description: as §1

Staphylococcus aureus = assay: antimicrobial screening by agar dilution, St. aureus
Description: as §1

Candida albicans = assay: antimicrobial screening by agar dilution, Candida albicans
Description: as §1

Measured: inhibition activity

CCCCCCn1c(-c2ccc(OC)c(OC)c2)nc(-c2ccc(Br)cc2)c1-c1ccc(Br)cc1 [4,5-bis(4-bromophenyl)-1-hexyl-2-(3,4-dimethoxyphenyl)-1H-imidazole]
highest inhibition activity: all assays above
